Data from patent publication US10392348B2, “2-oxo-3,4-dihydroquinoline compounds as plant growth regulators” (Syngenta Participations AG, priority 2015, dated 2019).
Like-named read-outs stand apart in the source and are kept apart here.

Key:
[1] = system: soybean plants (variety S20-G7); experiment: Reduced plant water use in soybean (foliar spray, repeated weighing of pots); assay type: in vivo; conditions: Glycine max, foliar, Table B1, sprayed at 500 μM, vs negative control
Method: Compounds were tested for their effect on reducing plant water use as follows. Each compound was dissolved in a blank emulsifiable concentrate (EC) formulation that was then diluted to the desired concentration with water containing additional surfactant (EXTRAVON 1 g/20 L). The compounds were applied by foliar spray to 12 day old soybean plants (variety S20-G7) grown in controlled environment plant growth chambers. Plant water use during the day was assessed by repeated weighing of the pots in which the plants were grown before and after application of the compounds at the indicated times (expressed in days after application (DAA)). The water use data before application was used to correct any differences in water use arising due to non-treatment effects (e.g. due to differences in plant size). The untransformed water use values were subjected to an analysis of covariance, fitting the effect of treatment and using the baseline water use 1 day before application as a covariate.
The results are expressed compared to negative control treatment (diluted EC formulation without active ingredient but with EXTRAVON 1 g/20 L).
Application of the chemicals (0 DAA) takes place approximately between 08:00 and 09:30 a.m. WU is measured within day time (chamber light is on 06:00 to 20:00) at these timepoints: 0 DAA a.m. (10:30-12:50), 0 DAA p.m. (14:00-19:50), 1 DAA a.m. (7:30-12:50), 1 DAA p.m. (14:00-19:50), 2 DAA a.m. (07:30-12:50) and 2 DAA p.m. (14:00-19:50). The cumulative total WU (0-2.5 DAA) is calculated by summing the WU data mentioned above.

[2] = system: corn plants (variety NK OCTET); experiment: Reduced plant water use in corn (foliar spray, repeated weighing of pots); assay type: in vivo; conditions: Zea mays, corn plants sprayed at 500 μM, average of 6 pots
Method: Compounds were tested for their effect on reducing plant water use as follows. The compounds were applied by foliar spray to 12 day old corn plants (variety NK OCTET) grown in controlled environment plant growth chambers. All compounds were applied using an emulsifiable concentrate (EC) formulation that was diluted to the desired concentrations with water containing 0.4% of the adjuvant rape seed methyl ester. Plant water use during the day was assessed by repeated weighing of the pots in which the plants were grown before and after application of the compounds at the indicated times (expressed in days after application (DAA)). The water use data before application was used to correct any differences in water use arising due to non-treatment effects (e.g. due to differences in plant size). The untransformed water use values were subjected to an analysis of covariance, fitting the effect of treatment and using the baseline water use 1 day before application as a covariate. Application of the chemicals (0 DAA) takes place approximately between 08:00 and 09:30 a.m. WU is measured within day time (chamber light is on 06:00 to 20:00) at these timepoints: 0 DAA a.m. (10:30-12:50), 0 DAA p.m. (14:00-19:50), 1 DAA a.m. (07:30-12:50), 1 DAA p.m. (14:00-19:50), 2 DAA a.m. (07:30-12:50) and 2 DAA p.m. (14:00-19:50). The cumulative total WU (0-2.5 DAA) is calculated by summing the WU data mentioned above.

[3] = 0 h, 0 DAA a.m. (10:30-12:50), read-out: % WU 0 DAA AM
[4] = 24 h, 1 DAA a.m. (7:30-12:50), read-out: % WU 1DAA AM
[5] = 24 h, 1 DAA p.m. (14:00-19:50), read-out: % WU 1DAA PM
[6] = 48 h, 2 DAA a.m. (07:30-12:50), read-out: % WU 2 DAA AM
[7] = 48 h, 2 DAA p.m. (14:00-19:50), read-out: % WU 2 DAA PM
[8] = 60 h, cumulative total WU (0-2.5 DAA), read-out: % WU Total 0 to 2.5 DAA
[9] = 0 h, water use during day time vs negative control, 0 DAA a.m. (10:30-12:50), read-out: % WU 0 DAA AM
[10] = 0 h, water use during day time vs negative control, 0 DAA p.m. (14:00-19:50), read-out: % WU 0DAA PM
[11] = 24 h, water use during day time vs negative control, 1 DAA a.m. (07:30-12:50), read-out: % WU 1DAA AM
[12] = 24 h, water use during day time vs negative control, 1 DAA p.m. (14:00-19:50), read-out: % WU 1DAA PM
[13] = 48 h, water use during day time vs negative control, 2 DAA a.m. (07:30-12:50), read-out: % WU 2 DAA AM
[14] = 48 h, water use during day time vs negative control, 2 DAA p.m. (14:00-19:50), read-out: % WU 2 DAA PM
[15] = 60 h, cumulative total water use 0-2.5 DAA (sum of the time points) vs negative control, read-out: % WU Total 0 to 2.5 DAA

For `CCCN1C(=O)CCc2cc(CNS(=O)(=O)c3ccc(C)cc3C)ccc21`, the melting point was 166 to 167 °C.

Compound `CCN1C(=O)CCc2cc(CNS(=O)(=O)c3ccccc3C)ccc21` [Compound 2.011, N-[(1-ethyl-2-oxo-3,4-dihydroquinolin-6-yl)methyl]-2-methyl-benzenesulfonamide] has a melting point of 203 to 206 °C.

`CCN1C(=O)CCc2cc(CNS(=O)(=O)c3ccc(C)cc3)ccc21` [Compound 2.012, N-[(1-ethyl-2-oxo-3,4-dihydroquinolin-6-yl)methyl]-4-methyl-benzenesulfonamide] gave a melting point of 202 to 203 °C.

For `CCN1C(=O)CCc2cc(CNS(=O)(=O)c3ccccc3Br)ccc21` [Compound 2.017, 2-bromo-N-[(1-ethyl-2-oxo-3,4-dihydroquinolin-6-yl)methyl]benzenesulfonamide], the melting point was 206 to 207 °C.

With `CCN1C(=O)CCc2cc(CNS(=O)(=O)C3CC3)ccc21` [Compound 2.018, N-[(1-ethyl-2-oxo-3,4-dihydroquinolin-6-yl)methyl]cyclopropanesulfonamide] the melting point was 104 to 106 °C.

`CCN1C(=O)CCc2cc(CNS(=O)(=O)/C=C/c3ccc(Br)cc3)ccc21` [Compound 2.052, (E)-2-(4-bromophenyl)-N-[(1-ethyl-2-oxo-3,4-dihydroquinolin-6-yl)methyl]ethenesulfonamide] showed a melting point of 119 to 124 °C.

`CCN1C(=O)CCc2cc(CNS(=O)(=O)/C=C/c3ccc(C)cc3)ccc21` [Compound 2.059, (E)-N-[(1-ethyl-2-oxo-3,4-dihydroquinolin-6-yl)methyl]-2-(p-tolyl)ethenesulfonamide] gave a melting point of 151 to 153 °C.

In the case of `CCN1C(=O)CCc2cc(CNS(=O)(=O)c3cn(C)cn3)ccc21` [Compound 2.063, N-[(1-ethyl-2-oxo-3,4-dihydroquinolin-6-yl)methyl]-1-methyl-imidazole-4-sulfonamide], the melting point is reported as 165 to 167 °C.

Work on `CCN1C(=O)CCc2cc(CNS(=O)(=O)c3cc(Cl)sc3Cl)ccc21` [Compound 2.064, 2,5-dichloro-N-[(1-ethyl-2-oxo-3,4-dihydroquinolin-6-yl)methyl]thiophene-3-sulfonamide] yielded a melting point of 198 to 201 °C.

`CCCN1C(=O)CCc2cc(CNS(=O)(=O)c3ccc(C(F)(F)F)cc3)ccc21` [Compound 3.015, N-[(2-oxo-1-propyl-3,4-dihydroquinolin-6-yl)methyl]-4-(trifluoromethyl)benzenesulfonamide] showed a melting point of 138 to 140 °C.

Compound `CCCN1C(=O)CCc2cc(CNS(=O)(=O)/C=C/c3ccc(C)cc3)ccc21` [Compound 3.059, (E)-N-[(2-oxo-1-propyl-3,4-dihydroquinolin-6-yl)methyl]-2-(p-tolyl)ethenesulfonamide] has a melting point of 172 to 174 °C.

With `CCCN1C(=O)CCc2cc(CNS(=O)(=O)/C=C/c3cccc(Br)c3)ccc21` [Compound 3.070, (E)-2-(3-bromophenyl)-N-[(2-oxo-1-propyl-3,4-dihydroquinolin-6-yl)methyl]ethenesulfonamide] the melting point was 148 to 153 °C.

In the case of `CCCN1C(=O)CCc2cc(C3(NS(=O)(=O)c4ccc(F)cc4F)CC3)ccc21` [Compound 15.006, 2,4-difluoro-N-[1-(2-oxo-1-propyl-3,4-dihydroquinolin-6-yl)cyclopropyl]benzenesulfonamide], the change in vivo at 500 µM [1, 3] is reported as -32.6%, the change in vivo at 500 µM [1, 4] is reported as -23.6% and the change in vivo at 500 µM [1, 5] is reported as -24.4%. For the same compound, the change in vivo at 500 µM [1, 6] was -17%, the change in vivo at 500 µM [1, 7] was -17.8% and the change in vivo at 500 µM [1, 8] was -23.8%. It also gave a change in vivo at 500 µM [2, 9] of -10.2%, a change in vivo at 500 µM [2, 10] of -3% and a change in vivo at 500 µM [2, 11] of -1.4%. For the same compound, the change in vivo at 500 µM [2, 12] was 0.1%, the change in vivo at 500 µM [2, 13] was 1.7% and the change in vivo at 500 µM [2, 14] was 1.1%. The change in vivo at 500 µM [2, 15] was -1.2%.

In the case of `CCN1C(=O)CC(C)c2cc(CNS(=O)(=O)c3ccccc3)ccc21` (centres unmarked) [Compound 20.001, N-[(1-ethyl-4-methyl-2-oxo-3,4-dihydroquinolin-6-yl)methyl]benzenesulfonamide], the change in vivo at 500 µM [1, 3] is reported as -50.1%, the change in vivo at 500 µM [1, 4] is reported as -58.5% and the change in vivo at 500 µM [1, 5] is reported as -55.2%. It also gave a change in vivo at 500 µM [1, 6] of -55.8%, a change in vivo at 500 µM [1, 7] of -50.5% and a change in vivo at 500 µM [1, 8] of -54.4%. It also gave a change in vivo at 500 µM [2, 9] of -21.7%, a change in vivo at 500 µM [2, 10] of -18.3% and a change in vivo at 500 µM [2, 11] of -19.2%. The change in vivo at 500 µM [2, 12] was -10.3%, the change in vivo at 500 µM [2, 13] was -8.1% and the change in vivo at 500 µM [2, 14] was -5.5%. The change in vivo at 500 µM [2, 15] was -12.9%.
